In US11041000B2, “Peptide inhibitors of interleukin-23 receptor and their use to treat inflammatory diseases” (priority 2019, dated 2021):
Numbered stars: 1 amine (or outer) side, 2 acyl side, 3 side chain; on linkers, the order of the positions; unused ones are H or OH. Bridge positions count the residues as written; N and C are the ends. Square brackets hold non-standard residues; d marks the D form. Peptide text beside a SMILES is read from it. X3 = CCc1ccc2c(C[C@H](N[*:1])C(=O)[*:2])c[nH]c2c1; Trp(7-Me) = Cc1cccc2c(C[C@H](N)C(=O)O)c[nH]c12; Abu(4-yl) = O=C([C@H](CC[*:3])N[*:1])[*:2]; 2Nal = N[C@@H](Cc1ccc2ccccc2c1)C(=O)O; d2Nal = N[C@H](Cc1ccc2ccccc2c1)C(=O)O; AEF = NCCOc1ccc(C[C@H](N)C(=O)O)cc1; αMeF = C[C@](N)(Cc1ccccc1)C(=O)O; Cit = NC(=O)NCCC[C@H](N)C(=O)O; Pen = CC(C)(S)[C@H](N)C(=O)O; αMeK = C[C@](N)(CCCCN)C(=O)O; Dab = NCC[C@H](N)C(=O)O; Aib = CC(C)(N)C(=O)O; βAla = NCCC(=O)O

Legend:
Assay type in all cases: in vitro ADME
[1] = Stability in rat plasma; details: both sexes, SD rat plasma, EDTA, 37° C., read-out: t½: Rat Plasma EDTA (converted)
[2] = Stability in simulated intestinal fluid (SIF); details: simulated intestinal fluid with pancreatin, pH 6.8, 37° C., matrix is 100 fold dilution of standard SIF concentration; for half-life at 20 μM: read-out: SIF t½ (converted); for SIF t½: 20 μM
[3] = Stability in cynomolgus monkey fecal homogenate; details: 20% fecal homogenate (supernatant), pH 6.8, 20% cynomolgus monkey fecal homogenate, anaerobic, 37° C., read-out: t½: Monkey Feces anaerobic (converted)
Experimental: (§1) Centrifuged the homogenate at 2800×g for 15 min. The supernatant is taken out and used for incubations. […] The final test compound concentration was 20 μM.

[4] = Stability in human fecal homogenate; details: 20% fecal homogenate (supernatant), pH 6.8, 20% human fecal homogenate, anaerobic, 37° C., read-out: t½: Human Feces anaerobic (converted)
Experimental: as §1

SMILES | half-life at 20 μM [1] | half-life at 20 μM [2] | half-life at 20 μM [3] | half-life at 20 μM [4] | SIF t½ [2]
CC(=O)NCCCC[C@H](NC(=O)[C@](C)(CCCCN)NC(=O)[C@H](Cc1ccc2ccccc2c1)NC(=O)[C@H](Cc1ccc(OCCN)cc1)NC(=O)[C@H]1NC(=O)[C@H](CCCNC(N)=O)NC(=O)[C@H](Cc2c[nH]c3c(C)cccc23)NC(=O)[C@H]([C@@H](C)O)NC(=O)[C@H](CC(N)=O)NC(=O)[C@@H](NC(C)=O)C(C)(C)SSC1(C)C)C(=O)N[C@@H](CC(N)=O)C(=O)NC(C)(C)C(=O)NCCC(N)=O [compound 340] (Ac-[Pen]NT[Trp(7-Me)][Cit][Pen][AEF][2Nal][αMeK]K(Ac)N[Aib][βAla]-NH2; disulfide 1-6) | > 24 h | 17 h | > 24 h | > 24 h | –
CC(=O)NCCCC[C@@H]1NC(=O)[C@H](Cc2c[nH]c3c(C)cccc23)NC(=O)[C@H]([C@@H](C)O)NC(=O)[C@H](CCCCNC(C)=O)NC(=O)[C@@H](NC(C)=O)C(C)(C)SSC(C)(C)[C@@H](C(=O)N[C@@H](Cc2ccc(OCCN)cc2)C(=O)N[C@@H](Cc2ccc3ccccc3c2)C(=O)N[C@@](C)(CCCCN)C(=O)N[C@@H](CCCCNC(C)=O)C(=O)N[C@@H](CC(N)=O)C(=O)N[C@H](CC(C)C)C(N)=O)NC1=O [compound 330] (Ac-[Pen]K(Ac)T[Trp(7-Me)]K(Ac)[Pen][AEF][2Nal][αMeK]K(Ac)N[dL]-NH2; disulfide 1-6) | > 24 h | – | > 24 h | > 24 h | 24 h
CCc1ccc2c(C[C@@H]3NC(=O)[C@H]([C@@H](C)O)NC(=O)[C@H](CC(N)=O)NC(=O)[C@@H](NC(C)=O)C(C)(C)SSC(C)(C)[C@@H](C(=O)N[C@@H](Cc4ccc(OCCN)cc4)C(=O)N[C@@H](Cc4ccc5ccccc5c4)C(=O)N[C@@](C)(CCCCN)C(=O)N[C@@H](CCCCNC(C)=O)C(=O)N[C@@H](CC(N)=O)C(=O)N[C@H](CCCCN)C(N)=O)NC(=O)[C@H](CCCCNC(C)=O)NC3=O)c[nH]c2c1 [compound 349] (Ac-[Pen]NT[X3]K(Ac)[Pen][AEF][2Nal][αMeK]K(Ac)N[dK]-NH2; disulfide 1-6) | > 24 h | – | > 24 h | > 24 h | 24 h
CC(=O)NCCCC[C@@H]1NC(=O)[C@H](Cc2c[nH]c3c(C)cccc23)NC(=O)[C@H]([C@@H](C)O)NC(=O)[C@H](CCCNC(N)=O)NC(=O)[C@@H](NC(C)=O)C(C)(C)SSC(C)(C)[C@@H](C(=O)N[C@@H](Cc2ccc(OCCN)cc2)C(=O)N[C@@H](Cc2ccc3ccccc3c2)C(=O)N[C@@](C)(CCCCN)C(=O)N[C@@H](CCCCNC(C)=O)C(=O)N[C@@H](CC(N)=O)C(=O)N[C@H](CC(C)C)C(N)=O)NC1=O [compound 331] (Ac-[Pen][Cit]T[Trp(7-Me)]K(Ac)[Pen][AEF][2Nal][αMeK]K(Ac)N[dL]-NH2; disulfide 1-6) | > 24 h | 15 h | > 24 h | > 24 h | –
CC(=O)NCCCC[C@@H]1NC(=O)[C@H](Cc2c[nH]c3c(C)cccc23)NC(=O)[C@H]([C@@H](C)O)NC(=O)[C@H](CCC(N)=O)NC(=O)[C@@H](NC(=O)[C@@H](CCCNC(=N)N)NC(C)=O)CCSC[C@@H](C(=O)N[C@@H](Cc2ccc(OCCN)cc2)C(=O)N[C@@H](Cc2ccc3ccccc3c2)C(=O)N[C@@](C)(CCCCN)C(=O)N[C@@H](CCCCNC(C)=O)C(=O)N[C@@H](CC(N)=O)C(=O)N[C@@](C)(Cc2ccccc2)C(N)=O)NC1=O [compound 327] (Ac-[dR][Abu(4-yl)]QT[Trp(7-Me)]K(Ac)C[AEF][2Nal][αMeK]K(Ac)N[αMeF]-NH2; thioether 2-7) | > 24 h | – | 24 h | > 24 h | 24 h
CC(=O)NCCCC[C@@H]1NC(=O)[C@H](Cc2c[nH]c3c(C)cccc23)NC(=O)[C@H]([C@@H](C)O)NC(=O)[C@H](CC(N)=O)NC(=O)[C@@H](NC(C)=O)C(C)(C)SSC(C)(C)[C@@H](C(=O)N[C@@H](Cc2ccc(OCCN)cc2)C(=O)N[C@@H](Cc2ccc3ccccc3c2)C(=O)N[C@@](C)(CCCCN)C(=O)N[C@@H](CCCCNC(=O)CC(F)(F)F)C(=O)N[C@@H](CC(N)=O)C(=O)N[C@H](CC(C)C)C(N)=O)NC1=O [compound 360] | > 24 h | – | > 24 h | > 24 h | 24 h

The remaining lines, values ahead:

half-life at 20 μM [1] | half-life at 20 μM [2] | half-life at 20 μM [3] | half-life at 20 μM [4] | SIF t½ [2] | SMILES
> 24 h | 12 h | > 24 h | > 24 h | – | CC(=O)NCCCC[C@@H]1NC(=O)[C@H](Cc2c(C)[nH]c3ccccc23)NC(=O)[C@H]([C@@H](C)O)NC(=O)[C@H](CC(N)=O)NC(=O)[C@@H](NC(C)=O)C(C)(C)SSC(C)(C)[C@@H](C(=O)N[C@@H](Cc2ccc(OCCN)cc2)C(=O)N[C@@H](Cc2ccc3ccccc3c2)C(=O)N[C@@](C)(CCCCN)C(=O)N[C@@H](CCCCNC(C)=O)C(=O)N[C@@H](CC(N)=O)C(=O)N[C@H](CCCCN)C(N)=O)NC1=O [compound 351]
> 24 h | – | > 24 h | > 24 h | 24 h | CC(=O)NCCCC[C@@H]1NC(=O)[C@H](Cc2c[nH]c3c(C)cccc23)NC(=O)[C@H]([C@@H](C)O)NC(=O)[C@H](CC(C)C)NC(=O)[C@@H](NC(C)=O)C(C)(C)SSC(C)(C)[C@@H](C(=O)N[C@@H](Cc2ccc(OCCN)cc2)C(=O)N[C@@H](Cc2ccc3ccccc3c2)C(=O)N[C@@](C)(CCCCN)C(=O)N[C@@H](CCCCNC(C)=O)C(=O)N[C@@H](CC(N)=O)C(=O)N[C@H](CC(C)C)C(N)=O)NC1=O [compound 332] (Ac-[Pen]LT[Trp(7-Me)]K(Ac)[Pen][AEF][2Nal][αMeK]K(Ac)N[dL]-NH2; disulfide 1-6)
> 24 h | 20 h | > 24 h | > 24 h | – | CC(=O)NCCCC[C@@H]1NC(=O)[C@H](Cc2c[nH]c3c(C)cccc23)NC(=O)[C@H]([C@@H](C)O)NC(=O)[C@H](CCNC(C)=O)NC(=O)[C@@H](NC(C)=O)C(C)(C)SSC(C)(C)[C@@H](C(=O)N[C@@H](Cc2ccc(OCCN)cc2)C(=O)N[C@@H](Cc2ccc3ccccc3c2)C(=O)N[C@@](C)(CCCCN)C(=O)N[C@@H](CCCCNC(C)=O)C(=O)N[C@@H](CC(N)=O)C(=O)N[C@H](CC(C)C)C(N)=O)NC1=O [compound 335] (Ac-[Pen][Dab](Ac)T[Trp(7-Me)]K(Ac)[Pen][AEF][2Nal][αMeK]K(Ac)N[dL]-NH2; disulfide 1-6)
> 24 h | 13 h | > 24 h | > 24 h | – | CC(=O)NCCCC[C@H](NC(=O)[C@](C)(CCCCN)NC(=O)[C@H](Cc1ccc2ccccc2c1)NC(=O)[C@H](Cc1ccc(OCCN)cc1)NC(=O)[C@H]1NC(=O)[C@H](CCCNC(N)=O)NC(=O)[C@H](Cc2c[nH]c3c(C)cccc23)NC(=O)[C@H]([C@@H](C)O)NC(=O)[C@H](CC(N)=O)NC(=O)[C@@H](NC(C)=O)C(C)(C)SSC1(C)C)C(=O)N[C@@H](CC(N)=O)C(=O)NC(C)(C)C(=O)N[C@H](Cc1ccc2ccccc2c1)C(N)=O [compound 348] (Ac-[Pen]NT[Trp(7-Me)][Cit][Pen][AEF][2Nal][αMeK]K(Ac)N[Aib][d2Nal]-NH2; disulfide 1-6)
